Test results from US20230416239A1, “COMPOUNDS AND METHODS FOR TREATING A CYTOKINE-MEDIATED DISEASE” (CONSERVATOIRE NATIONAL DES ARTS ET MÉTIERS, priority 2020, published 2023).
pIC50: −log10 of the molar value.

Tests used:
TNFα = TNFα (Homo sapiens, UniProt P01375); assay: Immunoassay binding test, TNFa; conditions: compounds 100 to 0.78 μM; TNFα 10 ng/ml, receptor 100 ng/ml; read-out: BINDING TNF IC50
Summary of the method: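 ELISA-type binding test: receptor-coated plates blocked with 2% BSA, then cytokine (six-point dilution series) preincubated 2 h at 37 °C and bound overnight at 4 °C. Detection used biotinylated anti-cytokine antibody and avidin-HRP, read as OD at 450 nm. For IL-6, IL-6Ra was present at 200 ng/ml final.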

TNFa/TNFRI interaction = TNFa/TNFRI interaction (Homo sapiens, UniProt P01375); assay: TNFa/TNFRI interaction displacement test; format: binding; conditions: for Displacement EC50 TNFa in presence of compound: Difference: Compound EC50 minus SPD304 EC50; for Displacement (%): compounds at 50 μM, human TNFRI 100 ng/ml;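 on Displacement EC50 TNFa in presence of compound: Difference: SPD304 reference at 20 µM final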
TNFa/TNFRI interaction, sequence (P01375 77-233 limits assumed): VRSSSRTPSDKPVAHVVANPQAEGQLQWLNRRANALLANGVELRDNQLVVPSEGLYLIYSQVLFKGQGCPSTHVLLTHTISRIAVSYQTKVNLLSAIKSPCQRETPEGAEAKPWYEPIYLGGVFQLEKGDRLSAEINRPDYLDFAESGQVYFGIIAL
Summary of the method: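 Plates coated overnight at 4° C with human TNFRI (100 ng/ml) and blocked with 2% BSA, then test mixtures were incubated overnight at 4° C. Bound cytokine detected with biotinylated anti-cytokine antibody (2 h, 37° C) and avidin-HRP, read as OD at 450 nm.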

IL-4 = target: T1, IL-4 (Homo sapiens, UniProt P05112); assay: Immunoassay binding test, IL-4; conditions: for pIC50: IL-4 400 ng/ml, receptor 100 ng/ml, read-out: BINDING IL4 IC50
T1 sequence (P05112 25-153): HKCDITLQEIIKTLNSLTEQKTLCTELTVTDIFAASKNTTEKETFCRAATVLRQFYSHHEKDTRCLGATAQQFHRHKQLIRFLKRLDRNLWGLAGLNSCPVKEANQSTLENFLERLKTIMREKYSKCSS
Summary of the method: (§1)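 Detection used OD at 450 nm after biotinylated anti-cytokine antibody and avidin-HRP were applied to receptor-coated wells. Those wells had received, overnight at 4 °C, cytokine preincubated 2 h at 37 °C with compound at final 100 to 0.78 μM. IL-6 mixtures further contained IL-6Ra at 200 ng/ml final.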

IL-13 = IL-13 (Homo sapiens, UniProt P35225); assay: Immunoassay binding test, IL-13; conditions: for pIC50: IL-13 400 ng/ml, receptor 100 ng/ml, read-out: BINDING IL13 IC50
IL-13, sequence (P35225 25-146, species assumed): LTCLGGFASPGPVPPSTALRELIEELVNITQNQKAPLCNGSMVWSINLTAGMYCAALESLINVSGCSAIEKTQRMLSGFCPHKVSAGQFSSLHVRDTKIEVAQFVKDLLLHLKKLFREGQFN
Summary of the method: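 Receptor-coated plates; compounds (100 to 0.78 μM final) preincubated 2 h at 37° C with fixed cytokine, then bound to receptor overnight at 4° C. Bound cytokine detected with biotinylated anti-cytokine antibody and avidin-HRP, OD 450 nm.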

IL-6 = IL-6 (Homo sapiens, UniProt P05231); assay: Immunoassay binding test, IL-6 (gp130 receptor, IL-6Ra present); conditions: IL-6Ra 200 ng/ml
IL-6, sequence (P05231 30-212, species assumed): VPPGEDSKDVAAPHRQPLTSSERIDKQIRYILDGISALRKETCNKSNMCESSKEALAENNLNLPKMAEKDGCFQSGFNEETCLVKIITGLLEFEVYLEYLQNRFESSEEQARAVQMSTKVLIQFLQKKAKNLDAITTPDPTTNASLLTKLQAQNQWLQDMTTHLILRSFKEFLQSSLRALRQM
Summary of the method: as §1

TNFα, sequence (P01375 77-233 limits assumed, species assumed): as the sequence (P01375 77-233 limits assumed) above

SMILES	pIC50 (TNFα)	Displacement EC50 TNFa in presence of compound: Difference (TNFa/TNFRI interaction) [ng/mL]	Displacement (%) (TNFa/TNFRI interaction)	BINDING IL4 % Neutra at 100 μM (IL-4) [%]	pIC50 (IL-4)	BINDING IL13 % Neutra at 100 μM (IL-13) [%]	pIC50 (IL-13)	BINDING IL6 % Neutra at 100 μM (IL-6) [%]
CN(CCCCCN(Cc1cccnc1)Cc1cn(S(=O)(=O)c2ccccc2)c2ccccc12)C1CCCCC1 [Compound 36]	5.41	–	165	97.4	5.47	95	4.70	−1.8
FC(F)(F)c1cccc(-n2cc(CN(CCCCCNC3CCCCC3)Cc3ccncc3)c3ccccc32)c1 [Compound 37]	4.72	–	123	96.3	5.40	96.4	5.13	20.4
FC(F)(F)c1cccc(-n2cc(CN(CCCCCNC3CCCCC3)Cc3cccnc3)c3ccccc32)c1 [Compound 38]	< 4.30	–	139	95.7	5.41	98.9	5.82	24.9
CN(CCCCCN(Cc1ccncc1)Cc1cn(-c2cccc(C(F)(F)F)c2)c2ccccc12)C1CCCCC1 [Compound 39]	4.83	4.2	159	96	5.33	94.8	< 4.30	23.7
CN(CCCCCN(Cc1cccnc1)Cc1cn(-c2cccc(C(F)(F)F)c2)c2ccccc12)C1CCCCC1 [Compound 40]	4.70	4.2	157	96.4	5.57	94.2	4.95	16.4
O=S(=O)(c1ccccc1)n1cc(CN(Cc2cccc(F)n2)CC2CCCN(C3CCCCC3)C2)c2ccccc21 (stereo not drawn) [Compound 41]	5.15	4.7	152	94.7	5.32	87.6	5.04	0
Fc1ncccc1CN(Cc1cn(-c2cccc(C(F)(F)F)c2)c2ccccc12)CC1CCCN(C2CCCCC2)C1 (stereo not drawn) [Compound 42]	4.81	8.3	177	94.4	5.19	86.3	4.67	0
CN(CCCCN(Cc1cccnc1F)Cc1cn(S(=O)(=O)c2ccccc2)c2ccccc12)C1CCCCC1 [Compound 49, N1-cyclohexyl-N4-((2-fluoropyridin-3-yl)methyl)-N1-methyl-N4-((1-(phenylsulfonyl)-1H-indol-3-yl)methyl)butane-1,4-diamine]	5.09	–	127	89.5	5.25	88.8	4.62	0
CN(CCCCN(Cc1cccc(F)n1)Cc1cn(S(=O)(=O)c2ccccc2)c2ccccc12)C1CCCCC1 [Compound 51, N1-cyclohexyl-N4-((6-fluoropyridin-2-yl)methyl)-N1-methyl-N4-((1-(phenylsulfonyl)-1H-indol-3-yl)methyl)butane-1,4-diamine]	5.10	–	153	87.2	5.17	89.4	4.59	0

Results, then the compound that gave them:

pIC50 (TNFα)	Displacement EC50 TNFa in presence of compound: Difference (TNFa/TNFRI interaction) [ng/mL]	Displacement (%) (TNFa/TNFRI interaction)	BINDING IL4 % Neutra at 100 μM (IL-4) [%]	pIC50 (IL-4)	BINDING IL13 % Neutra at 100 μM (IL-13) [%]	pIC50 (IL-13)	BINDING IL6 % Neutra at 100 μM (IL-6) [%]	SMILES
5.14	9.9	256	95.4	5.23	97.9	< 4.30	−4.8	O=S(=O)(c1ccccc1)n1cc(CN(CCCCCNC2CCCCC2)Cc2cccnc2)c2ccccc21 [Compound 34]
5.34	–	181	96.1	5.25	97.1	< 4.30	−21.5	CN(CCCCCN(Cc1ccncc1)Cc1cn(S(=O)(=O)c2ccccc2)c2ccccc12)C1CCCCC1 [Compound 35]
5.06	–	87	93.2	5.17	85.1	< 4.30	0	O=S(=O)(c1ccccc1)n1cc(CN(CCCCNC2CCCCC2)Cc2cccnc2F)c2ccccc21 [Compound 43, N1-cyclohexyl-N4-((2-fluoropyridin-3-yl)methyl)-N4-((1-(phenylsulfonyl)-1H-indol-3-yl)methyl)butane-1,4-diamine]
4.98	–	114	90.5	5.12	86.5	< 4.30	0	O=S(=O)(c1ccccc1)n1cc(CN(CCCCNC2CCCCC2)Cc2cccc(F)n2)c2ccccc21 [Compound 45, N1-cyclohexyl-N4-((6-fluoropyridin-2-yl)methyl)-N4-((1-(phenylsulfonyl)-1H-indol-3-yl)methyl)butane-1,4-diamine]
5.05	–	99	93.3	5.26	93.1	4.75	0	O=S(=O)(c1ccccc1)n1cc(CN(CCCCCNC2CCCCC2)Cc2ccnc(F)c2)c2ccccc21 [Compound 47, N1-cyclohexyl-N5-((2-fluoropyridin-4-yl)methyl)-N5-((1-(phenylsulfonyl)-1H-indol-3-yl)methyl)pentane-1,5-diamine]
4.86	–	91	91.2	5.15	89.9	4.75	1	O=S(=O)(c1ccccc1)n1cc(CN(CCCCCNC2CCCCC2)Cc2cccc(F)n2)c2ccccc21 [Compound 48, N1-cyclohexyl-N5-((6-fluoropyridin-2-yl)methyl)-N5-((1-(phenylsulfonyl)-1H-indol-3-yl)methyl)pentane-1,5-diamine]
5.14	–	138	90.6	5.20	90.3	4.58	0	CN(CCCCN(Cc1ccnc(F)c1)Cc1cn(S(=O)(=O)c2ccccc2)c2ccccc12)C1CCCCC1 [Compound 50, N1-cyclohexyl-N4-((2-fluoropyridin-4-yl)methyl)-N1-methyl-N4-((1-(phenylsulfonyl)-1H-indol-3-yl)methyl)butane-1,4-diamine]
